{"source": "patent US7183291B2", "about": "(Council of Scientific and Industrial Research, priority 1999, dated 2007)", "key": {"[1]": {"system": "G-6-PD deficient erythrocytes", "test": "Reduced glutathione (GSH) in G-6-PD deficient human erythrocytes after 3 h incubation", "format": "cell-based", "settings": "25 and 50 μg/ml of PQ and equivalent doses, P<0.001", "description": "(§1) Drug induced haemolysis is a serious complication in persons deficient in G-6-PD enzyme. The presence of reduced glutathione (GSH) in erythrocytes control the level of oxidative metabolites. Therefore, drugs, which cause lesser oxidation of GSH level are safe. […] G-6-PD deficiency was detected by the fluorescent spot screening test and confirmed by the enzyme assay method. Heparinised blood samples were collected from each individual and after centrifugation, the packed cells were washed three times with cold saline. […] GSH levels were estimated by the method of Bentler et al [Improved Method for the Determination of Blood Glutathione, J. Lab."}, "rodent malaria [2]": {"system": "rodent malaria", "settings": "in vivo; cited from earlier work"}, "rodent malaria [3]": {"system": "rodent malaria", "settings": "given directly to the insect; cited from earlier work"}, "normal erythrocytes": {"system": "normal erythrocytes", "test": "Reduced glutathione (GSH) in normal human erythrocytes after 3 h incubation", "format": "cell-based", "description": "as §1"}, "[4]": {"test": "Methaemoglobin levels in Beagle dogs after 7-day oral treatment", "experimental": "Colony bred beagle dogs were maintained in the kennel house of the Institute and fed with a standard diet.\nTreatment was administered once daily for seven doses (day 0–6), the day of the first dose being day 0. […] 5 ml. blood was collected from beagle dogs on day 0, 3, 7, 13 and 25 using potassium-oxalate crystals as anticoagulant. All the estimations/tests were conducted on the same day of collection of blood. Methaemoglobin was assayed by the method of Evelyn and Malloy (1938, J. Biol. Chem., 126, 655–662)."}, "rodent malaria [5]": {"system": "rodent malaria", "settings": "in vivo; cited from earlier work", "remark": "listed apart in the source"}, "[6]": {"system": "P. cynomolgi B gametocytes", "test": "Gametocytocidal test: infectivity of gametocytes from treated P. cynomolgi infected Rhesus monkeys to An. stephensi mosquitoes", "format": "in vivo", "experimental": "For the gametocytocidal test, batches of 3–4 day old An. Stephensi were allowed to feed on P. cynomolgi infected Rhesus monkeys at appropriate gametocytaemia level. […] […] Mosquitoes were maintained as 26±1° C. under optimal insectary conditions. The infectivity rate and the oocyst counts were recorded on day 8. Mosquitoes were further maintained in the insectary to record the formation of sporozoites and the absence of sporozoites in some of the batches was also ensured by inoculation of mosquito homogenates into native monkeys."}, "[7]": {"settings": "oral labelled primaquine; cited from earlier work"}, "[8]": {"settings": "1.00 mg/kg at 0 hr, feeding +24 hr"}, "[9]": {"settings": "1.00 mg/kg at 0 hr, feeding +48 hr"}, "[10]": {"settings": "1.00 mg/kg at 0 hr, feeding −1 hr (pre-treatment)"}, "[11]": {"settings": "3.16 mg/kg at 0 hr, feeding +24 hr"}, "[12]": {"settings": "3.16 mg/kg at 0 hr, feeding −1 hr (pre-treatment)"}}, "note": "Several values for one entry are separate records, joined by “and”; a condition that tells them apart may be missing. Identical values can stand only once.", "data": [{"molecule": "COc1cc(NC(C)CCCN)c2ncccc2c1", "note": "(stereo not drawn) [Primaquine, 8-(4-amino-1-methylbutylamino)-6-methoxy quinoline, reference compound]", "values": [{"measurement": "decrease in GSH level compared to controls", "setting": "[1]", "value": "statistically significant"}, {"measurement": "gametocytocidal activity", "setting": "rodent malaria [2]", "value": "very potent gametocytocidal agent"}, {"measurement": "direct sporontocidal activity", "setting": "rodent malaria [3]", "value": "quite inactive"}, {"measurement": "concentration at which fall in GSH levels reached statistical significance", "setting": "normal erythrocytes", "value": 10000, "unit": "ng/mL"}, {"measurement": "GSH (mg %) Mean ± SE", "setting": "normal erythrocytes; dose 1.00 μg/ml", "value": "43.50 ± 5.70", "unit": "mg %"}, {"measurement": "GSH (mg %) Mean ± SE", "setting": "normal erythrocytes; dose 5.00 μg/ml", "value": "39.00 ± 6.16", "unit": "mg %"}, {"measurement": "increase of mean Met-Hb values over day 0", "setting": "[4]; Group I, 1.0 mg/kg, day 7", "value": 3.7, "unit": "fold"}, {"measurement": "increase of Met-Hb over corresponding day 0 value", "setting": "[4]; Group II, 3.0 mg/kg", "value": 10.5, "unit": "fold"}, {"measurement": "blood schizontocidal activity", "setting": "rodent malaria [5]", "value": "has blood schizontocidal activities"}, {"measurement": "loss of infectivity", "setting": "[6]; 1.00 mg/kg", "value": "~98", "unit": "%"}, {"measurement": "No. of mosquitoes infected/dissected", "setting": "[6]; 1.00 mg/kg at 0 hr, feeding +5 hr", "value": "32/44 and 36/46"}, {"measurement": "No. of mosquitoes infected/dissected", "setting": "[6]; [8]", "value": "0/55 and 3/45"}, {"measurement": "Parasitaemia/mm^3 Asexual", "setting": "[6]; [8]", "value": "28048 /mm^3 and 26832 /mm^3"}, {"measurement": "% infectivity", "setting": "[6]; [9]", "value": "(0) %"}, {"measurement": "No. of mosquitoes infected/dissected", "setting": "[6]; [9]", "value": "0/40"}, {"measurement": "Parasitaemia/mm^3 Asexual", "setting": "[6]; [9]", "value": "15332 /mm^3 and 12140 /mm^3"}, {"measurement": "oocyst no. per gut (Mean ± SD)", "setting": "[6]; [9]", "value": "Nil"}, {"measurement": "No. of mosquitoes infected/dissected", "setting": "[6]; [10]", "value": "25/34 and 32/40"}, {"measurement": "Parasitaemia/mm^3 Asexual", "setting": "[6]; [10]", "value": "42394 /mm^3 and 36166 /mm^3"}, {"measurement": "No. of mosquitoes infected/dissected", "setting": "[6]; 3.16 mg/kg at 0 hr, feeding +5 hr", "value": "0/53 and 15/46"}, {"measurement": "% infectivity", "setting": "[6]; [11]", "value": "(0) %"}, {"measurement": "No. of mosquitoes infected/dissected", "setting": "[6]; [11]", "value": "0/33 and 0/43"}, {"measurement": "Parasitaemia/mm^3 Asexual", "setting": "[6]; [11]", "value": "23112 /mm^3 and 21204 /mm^3"}, {"measurement": "Parasitaemia/mm^3 Gametocytes", "setting": "[6]; [11]", "value": "749 /mm^3 and 670 /mm^3"}, {"measurement": "oocyst no. per gut (Mean ± SD)", "setting": "[6]; [11]", "value": "Nil"}, {"measurement": "No. of mosquitoes infected/dissected", "setting": "[6]; [12]", "value": "37/51 and 20/47"}, {"measurement": "Parasitaemia/mm^3 Asexual", "setting": "[6]; [12]", "value": "29680 /mm^3 and 16824 /mm^3"}, {"measurement": "Parasitaemia/mm^3 Gametocytes", "setting": "[6]; [12]", "value": "1230 /mm^3 and 1026 /mm^3"}, {"measurement": "gametocytocidal action", "setting": "[6]; 3.16 mg/kg, +24 hr", "value": "complete gametocytocidal action"}, {"measurement": "radioactivity found in liver tissue", "setting": "[7]", "value": 45, "unit": "%"}]}]}
